Data: patent US6831075B2, “Heterocyclic substituted pyrazolones” (Cephalon, Inc., priority 1999, dated 2004)

What was measured:
Format in all cases: biochemical
[1] = biological target: T1, baculovirus-expressed human trkA cytoplasmic domain (Homo sapiens, UniProt P04629); assay: trkA tyrosine kinase inhibition assay (ELISA-based); details: 1 uM compound; 40 μM ATP
T1 construct: baculovirus-expressed human trkA cytoplasmic domain; host or cells: baculovirus expression system
Description: Inhibition of trkA Tyrosine Kinase Activity
Selected heterocyclic substituted pyrazolones were tested for their ability to inhibit the kinase activity of baculovirus-expressed human trkA cytoplasmic domain using an ELISA-based assay as previously described (Angeles et al., Anal. Biochem. 236: 49-55, 1996). Briefly, a 96-well microtiter plate was coated with substrate solution (recombinant human phospholipase C-γl/glutathione S-transferase fusion protein (Rotin et al., EMBO J., 11: 559-567, 1992). Inhibition studies were performed in 100 μl assay mixtures containing 50 mM Hepes, pH 7.4, 40 μM ATP, 10 mM MnCl2, 0.1% BSA, 2% DMSO, and various concentrations of inhibitor. The reaction was initiated by addition of trkA kinase and allowed to proceed for 15 minutes at 37° C. An antibody to phosphotyrosine (UBI) was then added, followed by a secondary enzyme-conjugated antibody, alkaline phosphatase-labelled goat anti-mouse IgG (Bio-Rad). The activity of the bound enzyme was measured via an amplified detection system (Gibco-BRL). Inhibition data were analyzed using the sigmoidal dose-response (variable slope) equation in GraphPad Prism.

baculoviral GST-MLK1KD = biological target: T2, baculoviral GST-MLK1KD (Homo sapiens, UniProt P80192); assay: Mixed Lineage Kinase-1 inhibition assay (Millipore Multiscreen TCA in-plate, 32P); details: for MLK-1 Kinase % inhibition @ 1 uM: 1 uM compound, 60 μM ATP; for inhibition at 1 µM: read-out: MLK-1 Kinase % inhibition @ 1 uM
T2 construct: 1 μg/ml of baculoviral GST-MLK1KD; GST (N); host or cells: baculovirus expression system
Description: Inhibition of Mixed Lineage Kinase-1 Activity
The kinase activity of MLK1 was assessed using the Millipore Multiscreen TCA “in-plate” format as described for protein kinase C (Pitt & Lee, J. Biomol. Screening, 1: 47-51, 1996). Briefly, each 50-μl assay mixture contained 20 mM Hepes, pH 7.0, 1 mM EGTA, 10 mM MgCl2, 1 mM DTT, 25 mM β-glycerophosphate, 60 μM ATP, 0.25 μCi [γ-^32P]ATP, 0.1% BSA, 500 μg/ml myelin basic protein (UBI #13-104), 2% DMSO, 1 μM of test compound, and 1 μg/ml of baculoviral GST-MLK1KD. Samples were incubated for 15 min at 37° C. The reaction was stopped by adding ice cold 50% TCA and the protein were allowed to precipitate for 30 min at 4° C. The plates were then washed with ice cold 25% TCA. Supermix scintillation cocktail was added, and the plates were allowed to equilibrate for 1-2 hours prior to counting using the Wallac MicroBeta 1450 PLUS scintillation counter.

baculoviral GST-MLK3KD = biological target: T3, baculoviral GST-MLK3KD (Homo sapiens, UniProt Q16584); assay: Mixed Lineage Kinase-3 inhibition assay (Millipore Multiscreen plate, 32P); details: 1 uM compound, 100 μM ATP; for inhibition at 1 µM: read-out: MLK-3 Kinase % inhibition @ 1 uM
T3 construct: 2 μg/ml of baculoviral GST-MLK3KD; GST (N); host or cells: baculovirus expression system
Description: Inhibition of Mixed Lineage Kinase-3 Activity
Assays were performed using the Millipore Multiscreen plate format as described for MLK1. Briefly, each 50-μl assay mixture contained 20 mM Hepes, pH 7, 1 mM EGTA, 10 mM MgCl2, 1 mM DTT, 25 mM β-glycerophosphate, 100 μM ATP, 0.25 μCi [γ-^32P]ATP, 0.1% BSA, 500 μg/ml myelin basic protein (UBI #13-104), 2% DMSO, various concentrations of test compound, and 2 μg/ml of baculoviral GST-MLK3KD. Samples were incubated for 15 min at 37° C. The reaction was stopped by adding ice cold 50% TCA and the proteins were allowed to precipitate for 30 min at 4° C. The plates were then washed with ice cold 25% TCA. Supermix scintillation cocktail was added, and the plates were allowed to equilibrate for 1-2 hours prior to counting.

T1 sequence (P04629 440-796 limits assumed): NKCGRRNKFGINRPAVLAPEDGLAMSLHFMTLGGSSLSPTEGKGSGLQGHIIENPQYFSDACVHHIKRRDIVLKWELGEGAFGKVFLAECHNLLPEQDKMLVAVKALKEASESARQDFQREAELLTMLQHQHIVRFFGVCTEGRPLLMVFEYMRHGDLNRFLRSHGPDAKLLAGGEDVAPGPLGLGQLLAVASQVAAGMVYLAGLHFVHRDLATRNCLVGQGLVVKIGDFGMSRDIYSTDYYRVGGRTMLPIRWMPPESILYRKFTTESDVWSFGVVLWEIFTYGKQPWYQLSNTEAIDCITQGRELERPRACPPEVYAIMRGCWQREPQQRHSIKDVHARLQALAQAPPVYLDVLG
T3 sequence (Q16584 117-379 limits assumed): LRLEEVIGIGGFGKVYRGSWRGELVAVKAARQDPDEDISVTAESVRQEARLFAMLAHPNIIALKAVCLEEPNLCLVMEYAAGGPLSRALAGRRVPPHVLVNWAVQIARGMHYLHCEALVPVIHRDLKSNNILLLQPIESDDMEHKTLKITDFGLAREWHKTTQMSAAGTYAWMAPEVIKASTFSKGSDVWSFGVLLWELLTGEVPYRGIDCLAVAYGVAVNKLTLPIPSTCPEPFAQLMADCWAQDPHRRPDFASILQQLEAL
T2 sequence (P80192 144-412 limits assumed): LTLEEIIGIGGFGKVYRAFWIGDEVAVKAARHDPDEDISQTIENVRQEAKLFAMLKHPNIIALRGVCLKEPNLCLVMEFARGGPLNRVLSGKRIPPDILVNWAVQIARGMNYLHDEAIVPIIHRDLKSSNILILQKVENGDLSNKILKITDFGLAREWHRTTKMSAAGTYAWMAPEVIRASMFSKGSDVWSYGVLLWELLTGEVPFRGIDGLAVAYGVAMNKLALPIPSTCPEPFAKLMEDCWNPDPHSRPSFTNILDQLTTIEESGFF

Compound | trkA % inhibition @ 1 uM [1] [%] | MLK-1 Kinase % inhibition @ 1 uM (baculoviral GST-MLK1KD) [%] | MLK-3 Kinase % inhibition @ 1 uM (baculoviral GST-MLK3KD) [%] | inhibition at 1 µM [1] [%] | inhibition at 1 µM (baculoviral GST-MLK1KD) [%] | inhibition at 1 µM (baculoviral GST-MLK3KD) [%]
Cc1cc(C)c(C=C2C(=O)NN=C2c2ccoc2)[nH]1 [Compound 1] | 24 | 12 | 28 |  |  | 
Cc1cc(C)c(C=C2C(=O)NN=C2C2c3ccccc3Oc3ccccc32)[nH]1 [Compound 2] | 39 | −8 | −11 |  |  | 
Cc1cc(C)c(C=C2C(=O)NN=C2c2ccncc2)[nH]1 [Compound 3] | 60 | 2 | 12 |  |  | 
O=C1NN=C(c2ccoc2)C1=CC=C(c1ccccc1)c1ccccc1 [Compound 4] | 53 | 9 | −6 |  |  | 
CCc1c(C=C2C(=O)NN=C2c2ccoc2)[nH]c(C(=O)OCc2ccccc2)c1C [Compound 5] | 2 | 14 | −9 |  |  | 
Cc1c(I)[nH]c(C=C2C(=O)NN=C2c2ccoc2)c1I [Compound 6] | 31 | 25 | 3 |  |  | 
CCOC(=O)CCc1c(C(=O)OCC)[nH]c(C=C2C(=O)NN=C2c2ccoc2)c1CC(=O)OCC [Compound 7] | 33 | 9 | 7 |  |  | 
Cc1[nH]c(C=C2C(=O)NN=C2c2ccoc2)c(Br)c1Br [Compound 8] | 20 | 15 | 10 |  |  | 
O=C1NN=C(c2ccoc2)C1=Cc1c[nH]c2ccccc12 [Compound 9] | 41 | 22 | 27 |  |  | 
Cc1cc(C)c(C=C2C(=O)NN=C2c2cccnc2)[nH]1 [Compound 10] | 26 | 22 | 44 |  |  | 
COc1ccc2[nH]cc(C=C3C(=O)NN=C3c3ccoc3)c2c1 [Compound 11] | 65 | 21 | 31 |  |  | 
O=C1NN=C(c2ccoc2)C1=Cc1ccc[nH]1 [Compound 12] | 44 | 27 | 29 |  |  | 
Cc1nc(C)c(C2=NNC(=O)C2=Cc2c[nH]c3ccccc23)s1 [Compound 13] | 45 | 10 | 17 |  |  | 
Cc1cc(C)c(C=C2C(=O)NN=C2c2sc(C)nc2C)[nH]1 [Compound 14] | 35 | 8 | 14 |  |  | 
O=C1NN=C(c2ccoc2)C1=Cc1ncc[nH]1 [Compound 15] | 15 | −3 | −17 |  |  | 
COC(=O)c1ccc2[nH]cc(C=C3C(=O)NN=C3c3ccoc3)c2c1 [Compound 16] | 29 | 18 | 12 |  |  | 

Compound | trkA % inhibition @ 1 uM [1] [%] | MLK-1 Kinase % inhibition @ 1 uM (baculoviral GST-MLK1KD) [%] | MLK-3 Kinase % inhibition @ 1 uM (baculoviral GST-MLK3KD) [%] | inhibition at 1 µM [1] [%] | inhibition at 1 µM (baculoviral GST-MLK1KD) [%] | inhibition at 1 µM (baculoviral GST-MLK3KD) [%]
O=C1NN=C(c2ccoc2)C1=Cc1c[nH]c2ccc(Cl)cc12 [Compound 17] | 52 | 6 | 19 |  |  | 
O=C1NN=C(c2ccoc2)C1=Cc1c[nH]c2cccc(OCc3ccccc3)c12 [Compound 18] | 70 | 14 | 47 |  |  | 
O=C1NN=C(c2ccoc2)C1=Cc1c[nH]c2ccc(F)cc12 [Compound 19] | 45 | 4 | 11 |  |  | 
Cn1cc(C=C2C(=O)NN=C2c2ccoc2)c2ccccc21 [Compound 20] | 60 | 21 | 57 |  |  | 
O=C1NN=C(c2ccoc2)C1=Cc1c[nH]c2ccc(OCc3ccccc3)cc12 [Compound 21] | 56 | 4 | 24 |  |  | 
Cc1cccc2c(C=C3C(=O)NN=C3c3ccoc3)c[nH]c12 [Compound 22] | 44 | 1 | 24 |  |  | 
Cc1cc(C)c(C=C2C(=O)NN=C2c2ccn(C)c2)[nH]1 [Compound 23] | 26 | 30 | 69 |  |  | 
Cn1ccc(C2=NNC(=O)C2=Cc2c[nH]c3ccccc23)c1 [Compound 24] | 22 | 10 | 38 |  |  | 
O=C1NN=C(c2nccs2)C1=Cc1c[nH]c2ccccc12 [Compound 25, 4-(indol-3-ylmethylene)-3-(1,3-thiazol-2-yl)-2-pyrazolin-5-one] |  |  |  | 65 | 11 | 48
Cc1cc(C)c(C=C2C(=O)NN=C2c2nccs2)[nH]1 [Compound 26, 4-[(3,5-dimethylpyrrol-2-yl)methylene]-3-(1,3-thiazol-2-yl)-2 pyrazolin-5-one] |  |  |  | 42 | 10 | 57
Cc1cc(C)c(C=C2C(=O)NN=C2c2c(C)coc2C)[nH]1 [Compound 27] | 49 | 6 | 44 |  |  | 
Cc1cc(C)c(C=C2C(=O)NN=C2c2ccco2)[nH]1 [Compound 28, 4-[(3,5-dimethylpyrrol-2-yl)methylene]-3-(2-furyl)-2-pyrazolin-5-one] |  |  |  | 34 | 2 | 50
O=C1NN=C(c2ccco2)C1=Cc1c[nH]c2ccccc12 [Compound 29, 3-(2-furyl)-4-(indol-3-ylmethylene)-2-pyrazolin-5-one] |  |  |  | 43 | 21 | 38
Cc1cc(C)c(C=C2C(=O)NN=C2c2ccccn2)[nH]1 [Compound 30] | 22 | 2 | 46 |  |  | 
Cn1ccc(C2=NNC(=O)C2=Cc2c[nH]c3cccc(OCc4ccccc4)c23)c1 [Compound 31] | 39 | 27 | 49 |  |  | 
